What was measured:
[1] = Body weight of CMT rats during treatment; assay type: in vivo, rat; conditions: treated group comparatively with placebo group, data not shown
Description: The animals are weighted twice a week in order to adjust the doses to growing body weight. If the osmotic pump is chosen for the treatment administration, the doses of the drug are calculated on the basis of the estimated mean body weight of the animals expected for their age over the period of the pump duration (6 weeks). The pumps are re-implanted if necessary, with the appropriated anaesthesia protocol.
Body weights, overt signs (coat appearance, body posture, tremor) of the animals are monitored throughout the experiment. The rating scale is used for recording: 0=normal, 1=abnormal.

PMP22 protein = PMP22 protein expression analysis by flow cytometry (FACS) in primary rat Schwann cells; assay type: cell-based; conditions: 1 μM
Description: One day later, primary Schwann cells are stimulated by drugs during 24 hrs (3 wells/condition). The preparation of each compound is performed just prior to its addition to the cell culture medium. The following PCR conditions are used: Denaturation 5 min at 95° C. followed by 10 sec at 95° C., 40 sec at 60° C. and 10 sec at 72° C. and 1 min at 40° C. (Forty amplification cycles). The relative levels of PMP22 gene expression are measured following the Ct method comparing the quantity of products generated from the target gene PMP22 and the […] 8 hrs, 24 hrs and 48 hrs after drugs incubation, supernatants of primary rat Schwann cells are recovered, centrifuged and frozen. SC are detached with trypsin-EDTA. As soon as the majority of cells are in suspension, the trypsin is neutralised using DMEM with 10% FCS. Supernatants with cells are recovered and centrifuged. […] Forward Scatter (FSC) correlated with cell volume (size) and Side Scatter (SSC) depending on inner complexity of cells (granularity) are analysed. For expression of PMP22, analysis is performed within the total cells and percent of positive cells is calculated. Positive cells are cells with fluorescence intensity higher than the control with secondary antibody.

Compound: Cn1cc[nH]c1=S [methimazole, 1-methyl-3H-imidazole-2-thione]
- entire body weight [1]: rather diminished

Compound: CC[C@@H]1C(=O)OC[C@@H]1Cc1cncn1C [pilocarpine, (3S,4R)-3-ethyl-4-[(3-methylimidazol-4-yl)methyl]oxolan-2-one]
- decrease of PMP22 protein level of expression (PMP22 protein; 24 hrs of incubation): 38%
- change of PMP22 protein level of expression (PMP22 protein; 48 hrs of incubation, p<0.001): −18%

Source: patent publication US9597297B2, “Combination of pilocarpin and methimazol for treating Charcot-Marietooth disease and related disorders” (PHARNEXT, priority 2008, dated 2017)
